Assay results as given in PubChem BioAssay (NCI).
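Method: 48-hour compound exposure of cells in 96-well plates, five concentrations, linear interpolation of endpoints. The concentration for 50% growth inhibition is given as GI50. TGI is the concentration that stops growth completely.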

How the values were obtained:
Experiment in all cases: NCI tumour cell line growth inhibition, 48 h
MOLT-4 leukemia = system: MOLT-4 leukemia
NCI-H226 lung = system: NCI-H226 lung
A498 renal = system: A498 renal
786-0 renal = system: 786-0 renal
SK-MEL-2 melanoma = system: SK-MEL-2 melanoma
CCRF-CEM leukemia = system: CCRF-CEM leukemia
NCI-H460 lung = system: NCI-H460 lung
MALME-3M melanoma = system: MALME-3M melanoma
LOX IMVI melanoma = system: LOX IMVI melanoma
CAKI-1 renal = system: CAKI-1 renal

| SMILES | TGI (MOLT-4 leukemia) [µM] | TGI (NCI-H226 lung) [µM] | TGI (A498 renal) [µM] | TGI (786-0 renal) [µM] | TGI (SK-MEL-2 melanoma) [µM] | TGI (CCRF-CEM leukemia) [µM] | TGI (NCI-H460 lung) [µM] | TGI (MALME-3M melanoma) [µM] | TGI (LOX IMVI melanoma) [µM] | GI50 (MOLT-4 leukemia) [µM] | GI50 (NCI-H226 lung) [µM] | GI50 (786-0 renal) [µM] | GI50 (CAKI-1 renal) [µM] | TGI (CAKI-1 renal) [µM] | GI50 (SK-MEL-2 melanoma) [µM] | GI50 (CCRF-CEM leukemia) [µM] | GI50 (NCI-H460 lung) [µM] | GI50 (MALME-3M melanoma) [µM] | GI50 (LOX IMVI melanoma) [µM] | GI50 (A498 renal) [µM] |
| --- | --- | --- | --- | --- | --- | --- | --- | --- | --- | --- | --- | --- | --- | --- | --- | --- | --- | --- | --- | --- |
| CCOC(=O)/C(O)=C(/c1n[nH]c(=O)c2ccccc12)[N+](=O)[O-] | > 100 | > 100 | > 100 | > 100 | > 100 | > 100 | > 100 | > 100 | > 100 | – | – | – | – | – | – | – | – | – | – | – |
| CC(=O)[CH-]C(=O)c1ccccc1.CC(=O)[CH-]C(=O)c1ccccc1.CC[O-].CC[O-].[Zr+4] | > 100 | > 100 | – | > 100 | > 100 | > 100 | > 100 | > 100 | > 100 | > 100 | > 100 | > 100 | 62.8 | > 100 | > 100 | 69.7 | > 100 | > 100 | > 100 | – |
| C=C1C(=O)O[C@H]2[C@H]1CC/C(COC(=O)CCCCC(=O)OC/C1=C/CC[C@@]3(C)O[C@H]3[C@H]3OC(=O)C(=C)[C@@H]3CC1)=C\CC[C@@]1(C)O[C@@H]21 | – | 4.36 | > 100 | 3.86 | 75.6 | 4.25 | 25.5 | 5.66 | 2.9 | – | 1.9 | 1.69 | – | – | 3.39 | 0.429 | 3.52 | 2.1 | 1.45 | 11 |
| COc1ccc(N(CC(=O)NCCC[Te]c2ccccc2)C(=O)c2ccccc2)cc1 | 17.5 | 7.21 | 5.35 | 19.6 | 15.3 | – | 2.37 | 34.7 | 14.3 | 3.51 | 2.62 | 5.09 | 2.98 | 14.9 | 4.19 | – | 0.543 | 16.7 | 3.69 | 2.17 |
| COc1ccc(C(=O)C(c2ccc(OC)cc2)C2(O)C(=O)Nc3ccccc32)cc1 (centres undefined) | > 100 | > 100 | – | > 100 | > 100 | > 100 | – | > 100 | > 100 | – | – | – | – | > 100 | – | – | – | – | – | – |
| CC(=O)OC(/C=C1/C=CC(=O)O1)COC(=O)c1ccccc1 (centres undefined) | – | > 31.2 | > 31.2 | > 31.2 | – | > 31.2 | > 31.2 | > 31.2 | > 31.2 | – | – | – | – | > 31.2 | – | – | – | – | – | – |
| [O-]c1c2c(nn1-c1ccccc1)c1ccccc1c[n+]2Cc1ccccc1 | > 100 | > 100 | – | > 100 | > 100 | > 100 | > 100 | > 100 | > 100 | – | – | – | – | – | – | – | – | – | – | – |
| Cc1nn(-c2nc3ccccc3s2)c(C)c1Oc1ccccc1O | 12.5 | 26 | 23.6 | 27.7 | – | 47.8 | 16.3 | 25.6 | 16.9 | 2.56 | 9.07 | 14.6 | 10.9 | 22.9 | – | 5.14 | 0.654 | 12.6 | 2.87 | 11.4 |
| CCOc1c(Br)cc(C2C(C(=O)OC)=CN(C)C=C2C(=O)OC)cc1OC | > 100 | > 100 | 98.2 | > 100 | – | > 100 | > 100 | > 100 | > 100 | 38.9 | 86.3 | > 100 | 44.3 | > 100 | – | 40.1 | 58.1 | > 100 | 85.1 | 16.5 |
| O=S(=O)(/C=C/c1ccc(Cl)cc1Cl)Cc1ccccc1CS(=O)(=O)/C=C/c1ccc(Cl)cc1Cl | > 100 | > 100 | > 100 | > 100 | > 100 | > 100 | > 100 | – | > 100 | – | – | – | – | > 100 | – | – | – | – | – | – |
| Cc1cc2c(cc1Cl)SC1=CC(=O)N(c3ccccc3)C1=NS2(=O)=O | > 100 | > 100 | – | 71.6 | > 100 | 95.5 | > 100 | > 100 | 61.1 | 31.7 | 66.7 | 27.5 | > 100 | > 100 | 51.4 | 24.8 | 59.5 | 44.6 | 26.2 | – |
| CC(C)=CCC[C@H](C)[C@@H]1CC[C@]2(C)C3CC[C@]4(OC4(C)C)C(CCCO)[C@]3(C)CC[C@@]12C (some centres undefined) | 44.6 | 57.4 | 37.2 | 48.5 | – | 65.9 | 70.3 | 54.6 | 16.5 | 18.2 | 10 | 22.4 | 21.7 | 44.4 | – | 25.2 | 23.7 | 27.3 | 0.18 | 20.1 |
| Oc1ccccc1-c1nn(CNc2cccc(Cl)c2)c(=S)o1 | > 100 | > 100 | > 100 | > 100 | > 100 | 27.3 | > 100 | – | – | – | 54.2 | 67.3 | 65.4 | > 100 | > 100 | 3.63 | 20.6 | – | – | 60.1 |
| C=CCCC(OCOCCOC)c1cc(C)c(O[Si](C)(C)C(C)(C)C)c(C)c1 (centres undefined) | 19.4 | 26.4 | 70.6 | 28.1 | 30.8 | 30.6 | 32.1 | 41.4 | 27.6 | – | – | – | – | – | – | – | – | – | – | – |
| COc1ccc2nc(-c3cc(-c4cc(OC)c(OC)c(OC)c4)n[nH]3)[nH]c2c1 | 3.27 | 2.98 | 10.2 | 12.8 | – | 4.12 | 8.08 | 6.4 | – | 0.738 | 0.462 | 2.92 | 1.79 | 5.64 | – | 1.29 | 2.64 | 1.74 | – | 2.23 |
| COc1ccc(C(=O)OCC2OC(n3cnc4c(=S)nc[nH]c43)C(OC(=O)c3ccc(OC)cc3)C2OC(=O)c2ccc(OC)cc2)cc1 (centres undefined) | > 100 | > 100 | – | > 100 | > 100 | 93.3 | > 100 | > 100 | – | – | – | – | – | > 100 | – | – | – | – | – | – |
